Test [1] deals with T1, Sentrin-specific protease 6 (Homo sapiens, UniProt Q9GZR1).
T1 sequence (Q9GZR1 whole entry): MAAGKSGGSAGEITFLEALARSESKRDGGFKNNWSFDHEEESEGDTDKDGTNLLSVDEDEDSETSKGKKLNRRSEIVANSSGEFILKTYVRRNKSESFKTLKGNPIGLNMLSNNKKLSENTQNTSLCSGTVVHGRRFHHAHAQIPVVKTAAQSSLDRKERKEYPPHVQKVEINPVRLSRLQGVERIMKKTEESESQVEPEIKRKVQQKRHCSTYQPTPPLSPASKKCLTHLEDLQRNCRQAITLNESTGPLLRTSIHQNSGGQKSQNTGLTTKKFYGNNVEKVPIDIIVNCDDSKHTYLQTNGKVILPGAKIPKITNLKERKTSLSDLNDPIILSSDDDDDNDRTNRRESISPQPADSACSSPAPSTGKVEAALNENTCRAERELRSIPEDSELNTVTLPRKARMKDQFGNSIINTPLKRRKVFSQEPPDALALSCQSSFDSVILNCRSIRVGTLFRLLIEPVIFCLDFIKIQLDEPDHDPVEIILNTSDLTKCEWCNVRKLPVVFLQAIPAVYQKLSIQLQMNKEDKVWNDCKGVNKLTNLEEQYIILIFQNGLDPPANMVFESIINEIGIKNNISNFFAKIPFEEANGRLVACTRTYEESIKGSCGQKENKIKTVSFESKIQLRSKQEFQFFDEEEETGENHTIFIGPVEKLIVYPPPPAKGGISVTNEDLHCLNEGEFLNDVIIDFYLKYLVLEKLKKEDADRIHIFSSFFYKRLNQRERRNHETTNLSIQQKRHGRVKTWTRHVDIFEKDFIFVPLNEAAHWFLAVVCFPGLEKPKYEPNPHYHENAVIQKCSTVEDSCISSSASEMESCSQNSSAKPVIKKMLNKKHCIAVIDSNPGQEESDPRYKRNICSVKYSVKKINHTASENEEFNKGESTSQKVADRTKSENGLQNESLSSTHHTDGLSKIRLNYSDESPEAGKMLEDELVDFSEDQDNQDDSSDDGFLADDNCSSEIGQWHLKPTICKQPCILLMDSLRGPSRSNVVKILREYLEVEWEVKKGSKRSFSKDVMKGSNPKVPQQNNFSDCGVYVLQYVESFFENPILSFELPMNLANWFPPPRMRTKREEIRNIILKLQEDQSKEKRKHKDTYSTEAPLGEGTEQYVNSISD
The test is described as follows: SAR Analysis of small molecule inhibitors of Sentrin-specific protease 6 (SENP6) using a Luminescent assay. [Related pubchem assays (depositor defined):AID2582, AID2599]. Type of test: functional.

For test [2], the target named is T2, Sentrin-specific protease 8 (Homo sapiens, UniProt Q96LD8).
T2 sequence (Q96LD8 whole entry): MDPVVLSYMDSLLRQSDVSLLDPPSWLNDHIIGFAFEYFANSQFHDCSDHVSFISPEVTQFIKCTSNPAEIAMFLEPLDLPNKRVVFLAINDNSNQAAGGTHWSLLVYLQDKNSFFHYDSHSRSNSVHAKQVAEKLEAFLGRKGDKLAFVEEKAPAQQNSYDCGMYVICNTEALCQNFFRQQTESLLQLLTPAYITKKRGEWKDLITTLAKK
Description: SENP8 protease inhibitors, SAR follow-up, biochemical, luminescence (AID 504501). The test is classed as functional.

A further test has as its target T3, Caspase-3 (Homo sapiens, UniProt P42574).
T3 sequence (P42574 whole entry): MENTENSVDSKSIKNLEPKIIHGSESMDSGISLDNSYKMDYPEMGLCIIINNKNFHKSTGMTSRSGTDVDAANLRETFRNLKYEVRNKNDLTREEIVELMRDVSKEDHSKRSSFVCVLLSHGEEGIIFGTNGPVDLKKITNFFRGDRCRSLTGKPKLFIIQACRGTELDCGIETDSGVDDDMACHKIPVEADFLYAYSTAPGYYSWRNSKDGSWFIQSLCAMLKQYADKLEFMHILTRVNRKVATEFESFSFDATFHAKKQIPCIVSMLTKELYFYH
Description: SAR Analysis of small molecule inhibitors of Sentrin-specific proteases (SENPs) using a Caspase-3 Selectivity assay. [Related pubchem assays (depositor defined):AID2540, AID2599, AID434973, AID489001]. Type of test: functional.

Test [3] addresses T4, Sentrin-specific protease 7 (Homo sapiens, UniProt Q9BQF6).
T4 sequence (Q9BQF6 whole entry): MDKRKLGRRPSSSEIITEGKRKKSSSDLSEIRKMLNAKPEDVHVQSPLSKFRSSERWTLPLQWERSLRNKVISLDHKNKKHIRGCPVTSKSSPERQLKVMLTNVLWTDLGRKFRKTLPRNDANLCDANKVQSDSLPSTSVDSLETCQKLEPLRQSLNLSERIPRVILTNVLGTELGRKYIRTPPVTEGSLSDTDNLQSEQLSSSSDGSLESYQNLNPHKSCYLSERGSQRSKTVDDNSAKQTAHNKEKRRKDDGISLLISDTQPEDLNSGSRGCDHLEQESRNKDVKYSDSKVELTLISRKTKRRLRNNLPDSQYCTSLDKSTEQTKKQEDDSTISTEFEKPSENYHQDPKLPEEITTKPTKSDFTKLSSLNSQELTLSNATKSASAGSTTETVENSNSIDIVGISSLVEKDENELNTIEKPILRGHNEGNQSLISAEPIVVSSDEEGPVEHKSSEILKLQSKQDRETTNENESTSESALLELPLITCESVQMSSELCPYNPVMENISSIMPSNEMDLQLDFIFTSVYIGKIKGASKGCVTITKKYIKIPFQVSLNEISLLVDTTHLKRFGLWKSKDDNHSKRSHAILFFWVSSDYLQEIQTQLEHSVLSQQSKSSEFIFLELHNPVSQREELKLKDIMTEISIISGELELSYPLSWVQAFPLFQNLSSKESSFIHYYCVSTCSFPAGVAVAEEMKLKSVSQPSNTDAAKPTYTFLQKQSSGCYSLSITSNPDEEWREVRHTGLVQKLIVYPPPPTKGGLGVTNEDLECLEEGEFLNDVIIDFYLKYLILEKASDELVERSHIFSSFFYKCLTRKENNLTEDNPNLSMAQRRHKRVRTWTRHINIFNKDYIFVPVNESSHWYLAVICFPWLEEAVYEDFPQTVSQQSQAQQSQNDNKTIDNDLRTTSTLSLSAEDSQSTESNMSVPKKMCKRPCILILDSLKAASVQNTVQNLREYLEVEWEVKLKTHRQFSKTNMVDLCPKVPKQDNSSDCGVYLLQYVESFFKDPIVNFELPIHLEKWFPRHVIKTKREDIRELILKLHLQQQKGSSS
Description: SENP7 protease inhibitors, SAR follow-up, biochemical, luminescence (AID 504497). Type of test: functional.

Test [4] deals with Glyceraldehyde-3-phosphate dehydrogenase (Homo sapiens, UniProt P04406).
The test system of the next test is A-375. The test is described as follows: A375 melanoma cell viability reduction, dose response, counter-screen for MITF modulator project, cherry-pick samples, set 2 (AID 540335). The following applies: Homo sapiens. The test is classed as functional, cell-based. (In general: Counterscreens check selectivity or assay interference.)
In the next test the test system is Jurkat. The test is described as follows: antigen receptor-induced NF-kB inhibitors, dose response, Jurkat, luciferase reporter, luminescence, B- and T-cell (AID 489004).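 Also: NF-kB luciferase reporter Jurkat cells stimulated with PMA plus ionomycin.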 The test is classed as functional, cell-based. The following applies: Homo sapiens. For orientation: Reporter assays use an easily measured gene product as a stand-in for the process of interest.

SMILES strings stand for the structures. Calls of active or inactive are those of the source. Rule as the data show it, for most assays here: actives have a measured IC50 and inactives only a lower limit. Where only a bound is given, the exact number is not on record here.

By IC50 is commonly meant the concentration that inhibits the measured activity by half. For orientation: AC50 means the concentration giving half of the maximal activity seen.

Chain of Glyceraldehyde-3-phosphate dehydrogenase (P04406 whole entry): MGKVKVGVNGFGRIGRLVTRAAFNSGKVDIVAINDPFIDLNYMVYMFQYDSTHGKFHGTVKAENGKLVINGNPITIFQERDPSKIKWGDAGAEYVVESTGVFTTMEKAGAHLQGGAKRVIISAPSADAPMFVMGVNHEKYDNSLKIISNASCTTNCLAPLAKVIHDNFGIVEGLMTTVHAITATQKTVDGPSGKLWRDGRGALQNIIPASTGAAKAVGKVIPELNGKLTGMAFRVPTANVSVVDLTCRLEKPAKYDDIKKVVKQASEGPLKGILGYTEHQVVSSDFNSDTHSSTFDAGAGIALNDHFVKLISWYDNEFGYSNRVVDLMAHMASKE

Consider `COc1ccc(C(N)c2nccc3cc(OC)c(OC)cc23)cc1OC` (stereo not given), for which the IC50 (in test [1]; in test [2]; on Caspase-3; in test [3]) was > 99 µM (inactive) each time.
Consider `N#Cc1c(NC(=O)CSc2nc[nH]n2)sc2c1CCCCC2`, for which the IC50 is 8.05 µM (active) in test [1]; 12.7 µM (active) in test [2]; > 100 µM (not active) in test [4]; 40.4 µM (active) at Caspase-3; < 160 nM (active) with Jurkat. Also, in the test with A-375, the AC50 is > 35 µM (active).

For the origin of these results see ChEMBL document CHEMBL1201862, “PubChem BioAssay data set” (2004).
